This assay relates to IL-2 secretion by Jurkat T cells. Nature of the assay: Inhibition of IL-2 secretion. Format: cell-based. Particulars: Homo sapiens; Jurkat T cells stimulated with PHA, 20 to 24 hours, IL-2 by ELISA. As for the experimental part:
The CRAC channel modulatory activity of the compounds were thus evaluated by measuring the secretion of IL-2 by antigen stimulated T-cells in vitro. Alternatively, such activity can also be evaluated by assay methods known to one skilled in the art.
Inhibition of IL-2 secretion: Jurkat T cells were seeded at a density of 0.5 to 1 million cells per well in RPMI medium. Test compounds from this invention were added to the cells at different concentrations. This was followed by the addition of PHA, a T cell mitogen after 10 minutes. The cells were then incubated for 20 to 24 hours in a CO2 incubator at 37° C. After incubation with the compounds, cells were centrifuged, the supernatant was collected and processed for ELISA to quantitate the amount of IL-2 secreted. A commercial ELISA kit (R&D Systems, Inc. Minneapolis, Minn., USA) was used to estimate the IL-2 concentrations. Amount of IL-2 secreted by cells stimulated with PHA was considered as a 100% maximal signal and the decrease in amount of IL-2 secreted by cells treated with the test compounds was expressed as percent inhibition of the maximal signal. The dose response data was analyzed using 4-parametric sigmoidal dose response (variable slope) curve—fit.

With `CCc1ncc(-c2nn(C)c(=O)o2)cc1-c1ccc(NC(=O)c2c(F)cccc2F)cn1` [Example 31, N-(2′-ethyl-5′-(4-methyl-5-oxo-4,5-dihydro-1,3,4-oxadiazol-2-yl)-[2,3′-bipyridin]-5-yl)-2,6-difluorobenzamide], the half-inhibitory concentration (IC50) is 0.1 to 1 µM.

Turning to `Cc1cc(NC(=O)c2c(F)cccc2F)ccc1-c1cc(-c2nn(C)c(=O)o2)cnc1C1CC1` [Example 32, N-(4-(2-Cyclopropyl-5-(4-methyl-5-oxo-4,5-dihydro-1,3,4-oxadiazol-2-yl)pyridin-3-yl)-3-methylphenyl)-2,6-difluorobenzamide], the concentration for half-maximal inhibition (IC50) is less than 0.1 µM.

Take `Cn1nc(-c2cnc(C3CC3)c(-c3cnc(NC(=O)c4c(F)cccc4F)cn3)c2)oc1=O` [Example 33, N-(5-(2-Cyclopropyl-5-(4-methyl-5-oxo-4,5-dihydro-1,3,4-oxadiazol-2-yl)pyridin-3-yl)pyrazin-2-yl)-2,6-difluorobenzamide]: the IC50 was less than 0.1 µM. The figure for `Cn1nc(-c2cnc(C3CC3)c(-c3cnc(NC(=O)c4c(F)cccc4Cl)cn3)c2)oc1=O` [Example 34, 2-Chloro-N-(5-(2-cyclopropyl-5-(4-methyl-5-oxo-4,5-dihydro-1,3,4-oxadiazol-2-yl)pyridin-3-yl)pyrazin-2-yl)-6-fluorobenzamide] is 0.1 to 1 µM.

In turn, `Cn1nc(-c2cnc(C3CC3)c(-c3ccc(NC(=O)c4c(F)cccc4F)cn3)c2)oc1=O` [Example 35, N-(2′-Cyclopropyl-5′-(4-methyl-5-oxo-4,5-dihydro-1,3,4-oxadiazol-2-yl)-[2,3′-bipyridin]-5-yl)-2,6-difluorobenzamide] displayed a 50% inhibitory concentration (IC50) of less than 0.1 µM.

In turn, `Cn1nc(-c2cnc(C3CC3)c(-c3ccc(NC(=O)c4c(F)cccc4F)nc3)c2)oc1=O` [Example 36, N-(2′-Cyclopropyl-5′-(4-methyl-5-oxo-4,5-dihydro-1,3,4-oxadiazol-2-yl)-[3,3′-bipyridin]-6-yl)-2,6-difluorobenzamide] came in with an IC50 of less than 0.1 µM. For `Cn1nc(-c2cnc(C(F)(F)F)c(-c3cnc(NC(=O)c4c(F)cccc4F)cn3)c2)oc1=O` [Example 37, 2,6-Difluoro-N-(5-(5-(4-methyl-5-oxo-4,5-dihydro-1,3,4-oxadiazol-2-yl)-2-(trifluoromethyl)pyridine-3-yl)pyrazin-2-yl)benzamide] the value was less than 0.1 µM. For `Cn1nc(-c2cnc(C(F)(F)F)c(-c3ccc(NC(=O)c4c(F)cccc4F)nc3)c2)oc1=O` [Example 38, 2,6-Difluoro-N-(5′-(4-methyl-5-oxo-4,5-dihydro-1,3,4-oxadiazol-2-yl)-2′-(trifluoromethyl)-[3,3′-bipyridin]-6-yl)benzamide], the IC50 was 0.1 to 1 µM. The figure for `Cn1nc(-c2cnc(C(F)(F)F)c(-c3ccc(NC(=O)c4c(F)cccc4F)cn3)c2)oc1=O` [Example 39, 2,6-Difluoro-N-(5′-(4-methyl-5-oxo-4,5-dihydro-1,3,4-oxadiazol-2-yl)-2′-(trifluoromethyl)-[2,3′-bipyridin]-5-yl)benzamide] is 0.1 to 1 µM; for `CCc1ncc(-c2nn(C)c(=O)o2)cc1-c1ccc(NCc2c(F)cccc2F)cn1` [Example 40, 5-(5-((2,6-Difluorobenzyl)amino)-2′-ethyl-[2,3′-bipyridin]-5′-yl)-3-methyl-1,3,4-oxadiazol-2(3H)-one] it is 0.1 to 1 µM. The figure for `CCc1ncc(-c2nn(C)c(=O)o2)cc1-c1ccc(NCc2c(F)cccc2F)nc1` [Example 41A, 5-(6′-((2,6-Difluorobenzyl)amino)-2-ethyl-[3,3′-bipyridin]-5-yl)-3-methyl-1,3,4-oxadiazol-2(3H)-one] is greater than 1 µM; for `CCc1ncc(-c2nn(C)c(=O)o2)cc1-c1cc(C)c(NC(=O)c2c(F)cccc2F)cn1` [Example 41B, N-(2′-Ethyl-4-methyl-5′-(4-methyl-5-oxo-4,5-dihydro-1,3,4-oxadiazol-2-yl)-[2,3′-bipyridin]-5-yl)-2,6-difluorobenzamide] it is 0.1 to 1 µM.

Consider `CCc1ncc(-c2nn(C)c(=O)o2)cc1-c1cnc(NC(=O)c2c(F)cccc2F)cc1C` [Example 41], for which the 50% inhibitory concentration (IC50) is less than 0.1 µM.

As to `Cn1nc(-c2cnc(C3CC3)c(-c3ccc(C(=O)Nc4c(F)cccc4Cl)s3)c2)oc1=O` [Example 42, N-(2-Chloro-6-fluorophenyl)-5-(2-cyclopropyl-5-(4-methyl-5-oxo-4,5-dihydro-1,3,4-oxadiazol-2-yl)pyridin-3-yl)thiophene-2-carboxamide], the IC50 was less than 0.1 µM. For `Cc1cnccc1NC(=O)c1ccc(-c2cc(-c3nn(C)c(=O)o3)cnc2C2CC2)s1` [Example 43, 5-(2-Cyclopropyl-5-(4-methyl-5-oxo-4,5-dihydro-1,3,4-oxadiazol-2-yl)pyridin-3-yl)-N-(3-methylpyridin-4-yl)thiophene-2-carboxamide] the value was less than 0.1 µM. The figure for `CCc1ncc(-c2nn(C)c(=O)o2)cc1-c1ccc(C(=O)Nc2c(F)cccc2F)o1` [Example 44, N-(2,6-Difluorophenyl)-5-(2-ethyl-5-(4-methyl-5-oxo-4,5-dihydro-1,3,4-oxadiazol-2-yl)pyridin-3-yl)furan-2-carboxamide] is greater than 1 µM. Turning to `Cn1nc(-c2cnc(C3CC3)c(-c3ccc(C(=O)Nc4c(F)cccc4F)o3)c2)oc1=O` [Example 45, 5-(2-Cyclopropyl-5-(4-methyl-5-oxo-4,5-dihydro-1,3,4-oxadiazol-2-yl)pyridin-3-yl)-N-(2,6-difluorophenyl)furan-2-carboxamide], the IC50 is greater than 1 µM. For `CCc1ncc(-c2nn(C)c(=O)o2)cc1-c1ccc(NC(=O)c2c(F)cncc2F)cc1` [Example 46, N-(4-(2-Ethyl-5-(4-methyl-5-oxo-4,5-dihydro-1,3,4-oxadiazol-2-yl)pyridin-3-yl)phenyl)-3,5-difluoroisonicotinamide], the IC50 is 0.1 to 1 µM. For `CCc1ncc(-c2nn(C)c(=O)o2)cc1-c1ccc(NC(=O)c2c(C)cccc2F)cc1` [Example 47, N-(4-(2-Ethyl-5-(4-methyl-5-oxo-4,5-dihydro-1,3,4-oxadiazol-2-yl)pyridin-3-yl)phenyl)-2-fluoro-6-methylbenzamide] the value was 0.1 to 1 µM; for `CCc1ncc(-c2nn(C)c(=O)o2)cc1-c1ccc(NC(=O)c2c(F)cccc2Cl)cc1` [Example 48, 2-Chloro-N-(4-(2-ethyl-5-(4-methyl-5-oxo-4,5-dihydro-1,3,4-oxadiazol-2-yl)pyridin-3-yl)phenyl)-6-fluorobenzamide], 0.1 to 1 µM; for `CCc1ncc(-c2nn(C)c(=O)o2)cc1-c1ccc(NC(=O)c2snnc2C)cc1` [Example 49, N-(4-(2-Ethyl-5-(4-methyl-5-oxo-4,5-dihydro-1,3,4-oxadiazol-2-yl)pyridin-3-yl)phenyl)-4-methyl-1,2,3-thiadiazole-5-carboxamide], 0.1 to 1 µM. With `CCc1ncc(-c2nn(C)c(=O)o2)cc1-c1ccc(NC(=O)c2c(C)noc2C)cc1` [Example 50, N-(4-(2-Ethyl-5-(4-methyl-5-oxo-4,5-dihydro-1,3,4-oxadiazol-2-yl)pyridin-3-yl)phenyl)-3,5-dimethylisoxazole-4-carboxamide], the IC50 is greater than 1 µM.

Regarding `CCc1ncc(-c2nn(C)c(=O)o2)cc1-c1ccc(NC(=O)c2ccncc2C)cc1` [Example 51, N-(4-(2-Ethyl-5-(4-methyl-5-oxo-4,5-dihydro-1,3,4-oxadiazol-2-yl)pyridin-3-yl)phenyl)-3-methylisonicotinamide], the half-maximal inhibitory concentration (IC50) was greater than 1 µM. The molecule `CCc1ncc(-c2nn(C)c(=O)o2)cc1-c1cnc(NC(=O)c2c(F)cccc2F)cn1` [Example 53, 2,6-Difluoro-N-(5-(2-ethyl-5-(4-methyl-5-oxo-4,5-dihydro-1,3,4-oxadiazol-2-yl)pyridin-3-yl)pyrazin-2-yl)benzamide] had an IC50 of 0.1 to 1 µM. The figure for `CCc1ncc(-c2nn(C)c(=O)o2)cc1-c1cnc(NC(=O)c2c(F)cccc2Cl)cn1` [Example 54, 2-Chloro-N-(5-(2-ethyl-5-(4-methyl-5-oxo-4,5-dihydro-1,3,4-oxadiazol-2-yl)pyridin-3-yl)pyrazin-2-yl)-6-fluorobenzamide] is less than 0.1 µM; for `Cc1ncc(-c2nn(C)c(=O)o2)cc1-c1cnc(NC(=O)c2c(F)cccc2F)cn1` [Example 55, 2,6-Difluoro-N-(5-(2-methyl-5-(4-methyl-5-oxo-4,5-dihydro-1,3,4-oxadiazol-2-yl)pyridin-3-yl)pyrazin-2-yl)benzamide] it is 0.1 to 1 µM.

`CNc1ncc(-c2nn(C)c(=O)o2)cc1-c1cnc(NC(=O)c2c(F)cccc2F)cn1` [Example 56, 2,6-Difluoro-N-(5-(5-(4-methyl-5-oxo-4,5-dihydro-1,3,4-oxadiazol-2-yl)-2-(methylamino)pyridin-3-yl)pyrazin-2-yl)benzamide]: the IC50 is greater than 1 µM. The figure for `CCc1ncc(-c2nn(C)c(=O)o2)cc1-c1ccc(C(=O)Nc2c(F)cccc2F)s1` [Example 57, N-(2,6-Difluorophenyl)-5-(2-ethyl-5-(4-methyl-5-oxo-4,5-dihydro-1,3,4-oxadiazol-2-yl)pyridin-3-yl)thiophene-2-carboxamide] is less than 0.1 µM; for `Cc1ncc(-c2nn(C)c(=O)o2)cc1-c1ccc(C(=O)Nc2c(F)cccc2F)s1` [Example 58, N-(2,6-Difluorophenyl)-5-(2-methyl-5-(4-methyl-5-oxo-4,5-dihydro-1,3,4-oxadiazol-2-yl)pyridin-3-yl)thiophene-2-carboxamide] it is 0.1 to 1 µM.

For the origin of these results see US9399638B2, “Substituted pyridine compounds as CRAC modulators” (LUPIN LIMITED, priority 2012, dated 2016).
